How the values were obtained:
[1] = target: 5'-AMP-activated protein kinase catalytic subunit alpha-2 (Homo sapiens) (UniProt P54646)
[2] = target: Calcium/calmodulin-dependent protein kinase type 1D (Homo sapiens) (UniProt Q8IU85)
[3] = target: Calcium/calmodulin-dependent protein kinase type II subunit alpha (Homo sapiens) (UniProt Q9UQM7)
[4] = target: Death-associated protein kinase 3 (Homo sapiens) (UniProt O43293)
[5] = target: T1, Myotonin-protein kinase (Homo sapiens) (UniProt Q09013)
T1 sequence (whole entry): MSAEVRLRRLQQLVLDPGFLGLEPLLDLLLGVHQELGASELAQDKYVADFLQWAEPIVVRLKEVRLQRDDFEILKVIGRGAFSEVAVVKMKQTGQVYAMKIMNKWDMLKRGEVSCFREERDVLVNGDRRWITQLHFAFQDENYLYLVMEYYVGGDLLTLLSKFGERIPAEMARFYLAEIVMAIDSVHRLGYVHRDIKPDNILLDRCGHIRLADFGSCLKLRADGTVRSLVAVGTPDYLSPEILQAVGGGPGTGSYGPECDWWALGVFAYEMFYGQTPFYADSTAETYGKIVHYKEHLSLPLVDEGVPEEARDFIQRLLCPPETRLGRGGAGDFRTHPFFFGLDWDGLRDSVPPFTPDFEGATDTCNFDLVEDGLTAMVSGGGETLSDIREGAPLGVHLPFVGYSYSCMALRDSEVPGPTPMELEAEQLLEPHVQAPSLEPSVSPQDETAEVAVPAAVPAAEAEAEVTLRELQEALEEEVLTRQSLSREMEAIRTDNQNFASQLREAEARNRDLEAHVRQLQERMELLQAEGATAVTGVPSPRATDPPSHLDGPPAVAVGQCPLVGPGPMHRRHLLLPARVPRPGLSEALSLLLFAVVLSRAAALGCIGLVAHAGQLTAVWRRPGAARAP

[6] = target: Glycogen synthase kinase-3 beta (Homo sapiens, UniProt P49841)
[7] = target: Tyrosine-protein kinase JAK1 (Homo sapiens) (UniProt P23458)
Chain of Tyrosine-protein kinase JAK1 (Homo sapiens) (P23458 whole entry): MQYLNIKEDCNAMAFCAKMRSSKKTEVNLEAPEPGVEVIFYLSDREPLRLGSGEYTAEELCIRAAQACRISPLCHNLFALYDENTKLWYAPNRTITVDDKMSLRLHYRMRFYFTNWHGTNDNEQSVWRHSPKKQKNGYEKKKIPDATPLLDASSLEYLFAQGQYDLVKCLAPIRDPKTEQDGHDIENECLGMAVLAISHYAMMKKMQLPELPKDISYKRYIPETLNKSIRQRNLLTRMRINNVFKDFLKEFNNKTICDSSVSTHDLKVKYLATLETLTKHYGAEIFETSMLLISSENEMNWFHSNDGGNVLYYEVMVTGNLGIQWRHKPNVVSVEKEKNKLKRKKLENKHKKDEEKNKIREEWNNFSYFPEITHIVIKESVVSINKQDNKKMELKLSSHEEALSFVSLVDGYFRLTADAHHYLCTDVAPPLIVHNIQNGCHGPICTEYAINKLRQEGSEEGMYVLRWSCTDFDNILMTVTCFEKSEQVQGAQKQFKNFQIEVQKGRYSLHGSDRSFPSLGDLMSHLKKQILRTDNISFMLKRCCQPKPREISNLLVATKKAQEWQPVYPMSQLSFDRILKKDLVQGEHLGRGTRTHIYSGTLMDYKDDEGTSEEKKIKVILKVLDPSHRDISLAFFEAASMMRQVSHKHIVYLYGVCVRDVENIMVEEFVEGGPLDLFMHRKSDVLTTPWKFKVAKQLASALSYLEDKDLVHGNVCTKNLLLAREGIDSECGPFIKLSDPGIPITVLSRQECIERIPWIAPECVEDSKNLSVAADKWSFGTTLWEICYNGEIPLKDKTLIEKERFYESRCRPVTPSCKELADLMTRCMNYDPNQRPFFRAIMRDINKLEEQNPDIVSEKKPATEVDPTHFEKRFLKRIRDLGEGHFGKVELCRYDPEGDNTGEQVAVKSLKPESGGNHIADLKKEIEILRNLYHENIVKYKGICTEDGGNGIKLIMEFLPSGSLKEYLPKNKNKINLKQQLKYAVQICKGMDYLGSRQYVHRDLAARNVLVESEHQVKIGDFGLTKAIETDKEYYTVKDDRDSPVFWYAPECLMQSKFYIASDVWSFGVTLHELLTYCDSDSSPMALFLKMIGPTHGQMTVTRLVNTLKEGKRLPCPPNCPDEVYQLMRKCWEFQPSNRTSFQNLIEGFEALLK

[8] = target: Dual specificity mitogen-activated protein kinase kinase 2 (Homo sapiens, UniProt P36507)
Chain of Dual specificity mitogen-activated protein kinase kinase 2 (P36507 whole entry): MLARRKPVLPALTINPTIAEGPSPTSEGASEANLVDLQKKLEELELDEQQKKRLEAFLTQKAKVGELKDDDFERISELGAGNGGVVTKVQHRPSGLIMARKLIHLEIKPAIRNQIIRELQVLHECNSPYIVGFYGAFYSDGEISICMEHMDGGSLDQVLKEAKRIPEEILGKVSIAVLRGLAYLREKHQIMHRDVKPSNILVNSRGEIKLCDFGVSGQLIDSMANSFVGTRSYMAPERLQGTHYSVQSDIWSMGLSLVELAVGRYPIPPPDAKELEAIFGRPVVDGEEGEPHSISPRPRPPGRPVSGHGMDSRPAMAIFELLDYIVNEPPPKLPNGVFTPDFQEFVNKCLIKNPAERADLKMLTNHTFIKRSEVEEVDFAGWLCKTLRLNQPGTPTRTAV

[9] = target: T2, Dual specificity mitogen-activated protein kinase kinase 6 (Homo sapiens) (UniProt P52564)
T2 sequence (whole entry): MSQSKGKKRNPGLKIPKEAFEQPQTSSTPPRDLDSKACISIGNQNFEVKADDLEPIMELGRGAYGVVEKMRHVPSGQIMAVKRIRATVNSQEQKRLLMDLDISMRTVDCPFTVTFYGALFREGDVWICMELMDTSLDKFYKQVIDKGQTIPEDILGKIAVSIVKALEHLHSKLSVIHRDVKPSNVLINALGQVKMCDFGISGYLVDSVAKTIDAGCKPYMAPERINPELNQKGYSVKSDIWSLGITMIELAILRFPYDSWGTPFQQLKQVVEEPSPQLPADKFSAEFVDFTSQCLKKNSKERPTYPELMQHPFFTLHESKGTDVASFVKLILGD

[10] = target: Mitogen-activated protein kinase 11 (Homo sapiens, UniProt Q15759)
Chain of Mitogen-activated protein kinase 11 (Q15759 whole entry): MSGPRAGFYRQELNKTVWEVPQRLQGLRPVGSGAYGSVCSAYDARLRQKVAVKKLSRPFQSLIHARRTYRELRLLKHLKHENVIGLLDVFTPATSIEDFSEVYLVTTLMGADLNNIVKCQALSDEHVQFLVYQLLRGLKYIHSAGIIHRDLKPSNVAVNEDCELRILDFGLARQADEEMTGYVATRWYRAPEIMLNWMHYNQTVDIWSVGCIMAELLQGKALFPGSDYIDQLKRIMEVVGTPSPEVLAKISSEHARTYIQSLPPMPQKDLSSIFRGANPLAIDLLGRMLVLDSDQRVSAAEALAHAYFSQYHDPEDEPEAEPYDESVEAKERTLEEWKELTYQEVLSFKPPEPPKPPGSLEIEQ

[11] = target: Serine/threonine-protein kinase 26 (Homo sapiens) (UniProt Q9P289)
Chain of Serine/threonine-protein kinase 26 (Homo sapiens) (Q9P289 2-416 limits assumed): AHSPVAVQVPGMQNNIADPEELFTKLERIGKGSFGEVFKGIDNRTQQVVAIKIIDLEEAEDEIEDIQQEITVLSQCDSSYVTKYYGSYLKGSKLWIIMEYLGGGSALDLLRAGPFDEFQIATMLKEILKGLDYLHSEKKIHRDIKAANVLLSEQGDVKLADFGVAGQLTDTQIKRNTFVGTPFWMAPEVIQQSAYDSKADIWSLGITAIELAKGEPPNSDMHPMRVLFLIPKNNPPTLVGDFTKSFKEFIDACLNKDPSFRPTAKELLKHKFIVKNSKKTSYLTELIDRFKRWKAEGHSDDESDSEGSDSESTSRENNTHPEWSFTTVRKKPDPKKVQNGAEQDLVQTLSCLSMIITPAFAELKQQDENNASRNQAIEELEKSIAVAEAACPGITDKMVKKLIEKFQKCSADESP

[12] = target: Serine/threonine-protein kinase pim-3 (Homo sapiens) (UniProt Q86V86)
[13] = target: Serine/threonine-protein kinase RIO2 (Homo sapiens) (UniProt Q9BVS4)
[14] = target: Serine/threonine-protein kinase 10 (Homo sapiens) (UniProt O94804)
Chain of Serine/threonine-protein kinase 10 (Homo sapiens) (O94804 whole entry, looked up): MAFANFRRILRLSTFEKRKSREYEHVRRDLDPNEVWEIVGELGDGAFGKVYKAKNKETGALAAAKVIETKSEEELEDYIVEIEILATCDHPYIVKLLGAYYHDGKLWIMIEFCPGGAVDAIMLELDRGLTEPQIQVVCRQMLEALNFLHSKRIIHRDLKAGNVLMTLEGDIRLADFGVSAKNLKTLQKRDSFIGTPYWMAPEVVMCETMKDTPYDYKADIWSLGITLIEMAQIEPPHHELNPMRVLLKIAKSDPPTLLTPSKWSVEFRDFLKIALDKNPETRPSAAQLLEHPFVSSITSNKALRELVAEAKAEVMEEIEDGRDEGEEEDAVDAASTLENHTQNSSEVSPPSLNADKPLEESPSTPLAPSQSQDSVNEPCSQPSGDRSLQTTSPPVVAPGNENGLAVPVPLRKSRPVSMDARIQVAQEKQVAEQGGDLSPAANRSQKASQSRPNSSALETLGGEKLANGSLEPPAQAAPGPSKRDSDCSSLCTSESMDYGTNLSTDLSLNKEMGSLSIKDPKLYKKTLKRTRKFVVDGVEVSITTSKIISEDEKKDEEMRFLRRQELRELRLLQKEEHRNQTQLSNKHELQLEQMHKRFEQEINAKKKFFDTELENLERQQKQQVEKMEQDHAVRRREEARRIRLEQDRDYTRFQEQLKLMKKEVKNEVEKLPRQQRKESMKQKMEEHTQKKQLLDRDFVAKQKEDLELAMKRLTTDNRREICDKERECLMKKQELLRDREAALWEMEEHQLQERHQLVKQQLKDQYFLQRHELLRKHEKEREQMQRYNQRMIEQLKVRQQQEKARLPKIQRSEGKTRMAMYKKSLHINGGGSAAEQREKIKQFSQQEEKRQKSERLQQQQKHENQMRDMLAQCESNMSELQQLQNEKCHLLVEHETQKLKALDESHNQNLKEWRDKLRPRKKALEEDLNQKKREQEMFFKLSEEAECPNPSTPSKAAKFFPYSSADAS

[15] = target: T3, Serine/threonine-protein kinase 17A (Homo sapiens) (UniProt Q9UEE5)
T3 sequence (whole entry): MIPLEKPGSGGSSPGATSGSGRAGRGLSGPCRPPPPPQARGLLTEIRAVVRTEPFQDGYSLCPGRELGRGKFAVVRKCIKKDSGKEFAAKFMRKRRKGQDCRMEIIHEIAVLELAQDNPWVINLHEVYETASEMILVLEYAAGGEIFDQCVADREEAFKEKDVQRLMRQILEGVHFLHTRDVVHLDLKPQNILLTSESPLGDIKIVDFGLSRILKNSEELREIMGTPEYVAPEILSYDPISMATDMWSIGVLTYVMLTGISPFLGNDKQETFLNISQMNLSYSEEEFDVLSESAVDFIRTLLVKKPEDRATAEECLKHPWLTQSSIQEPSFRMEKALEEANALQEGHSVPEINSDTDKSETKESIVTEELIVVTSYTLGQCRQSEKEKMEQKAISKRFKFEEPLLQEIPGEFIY

[16] = target: T4, Lymphokine-activated killer T-cell-originated protein kinase (Homo sapiens) (UniProt Q96KB5)
T4 sequence (whole entry): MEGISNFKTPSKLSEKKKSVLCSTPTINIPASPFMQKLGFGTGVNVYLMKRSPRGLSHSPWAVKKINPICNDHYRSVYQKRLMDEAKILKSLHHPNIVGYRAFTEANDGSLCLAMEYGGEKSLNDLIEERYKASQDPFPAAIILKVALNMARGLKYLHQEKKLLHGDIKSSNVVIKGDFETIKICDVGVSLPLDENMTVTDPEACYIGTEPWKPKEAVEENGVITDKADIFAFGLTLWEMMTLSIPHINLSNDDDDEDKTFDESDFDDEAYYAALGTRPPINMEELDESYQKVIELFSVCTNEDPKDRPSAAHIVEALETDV

[17] = target: Serine/threonine-protein kinase 25 (Homo sapiens) (UniProt O00506)
Chain of Serine/threonine-protein kinase 25 (Homo sapiens) (O00506 whole entry, looked up): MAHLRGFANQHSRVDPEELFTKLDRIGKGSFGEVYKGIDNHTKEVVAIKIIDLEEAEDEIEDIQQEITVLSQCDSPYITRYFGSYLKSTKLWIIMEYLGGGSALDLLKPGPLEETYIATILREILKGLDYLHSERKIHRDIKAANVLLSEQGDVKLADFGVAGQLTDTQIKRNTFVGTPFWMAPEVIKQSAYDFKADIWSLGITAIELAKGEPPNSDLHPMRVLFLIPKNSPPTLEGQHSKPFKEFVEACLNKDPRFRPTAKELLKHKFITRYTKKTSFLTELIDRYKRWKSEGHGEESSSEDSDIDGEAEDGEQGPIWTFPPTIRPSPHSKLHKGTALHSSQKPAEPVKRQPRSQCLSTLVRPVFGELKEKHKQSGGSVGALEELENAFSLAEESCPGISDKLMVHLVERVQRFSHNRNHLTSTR

Chain of Death-associated protein kinase 3 (Homo sapiens) (O43293 whole entry, looked up): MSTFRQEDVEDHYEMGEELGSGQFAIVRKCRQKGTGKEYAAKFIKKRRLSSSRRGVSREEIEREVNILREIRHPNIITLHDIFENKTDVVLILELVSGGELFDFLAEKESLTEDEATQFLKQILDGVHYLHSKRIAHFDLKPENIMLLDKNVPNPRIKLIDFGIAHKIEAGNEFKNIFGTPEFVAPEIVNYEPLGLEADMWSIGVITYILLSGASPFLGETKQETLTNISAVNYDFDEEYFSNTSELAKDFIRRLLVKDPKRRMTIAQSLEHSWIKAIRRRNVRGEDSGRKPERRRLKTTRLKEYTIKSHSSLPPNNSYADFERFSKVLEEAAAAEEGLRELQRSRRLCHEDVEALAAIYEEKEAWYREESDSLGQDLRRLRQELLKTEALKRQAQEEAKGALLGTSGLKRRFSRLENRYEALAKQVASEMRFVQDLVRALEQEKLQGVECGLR
Chain of 5'-AMP-activated protein kinase catalytic subunit alpha-2 (Homo sapiens) (P54646 whole entry, looked up): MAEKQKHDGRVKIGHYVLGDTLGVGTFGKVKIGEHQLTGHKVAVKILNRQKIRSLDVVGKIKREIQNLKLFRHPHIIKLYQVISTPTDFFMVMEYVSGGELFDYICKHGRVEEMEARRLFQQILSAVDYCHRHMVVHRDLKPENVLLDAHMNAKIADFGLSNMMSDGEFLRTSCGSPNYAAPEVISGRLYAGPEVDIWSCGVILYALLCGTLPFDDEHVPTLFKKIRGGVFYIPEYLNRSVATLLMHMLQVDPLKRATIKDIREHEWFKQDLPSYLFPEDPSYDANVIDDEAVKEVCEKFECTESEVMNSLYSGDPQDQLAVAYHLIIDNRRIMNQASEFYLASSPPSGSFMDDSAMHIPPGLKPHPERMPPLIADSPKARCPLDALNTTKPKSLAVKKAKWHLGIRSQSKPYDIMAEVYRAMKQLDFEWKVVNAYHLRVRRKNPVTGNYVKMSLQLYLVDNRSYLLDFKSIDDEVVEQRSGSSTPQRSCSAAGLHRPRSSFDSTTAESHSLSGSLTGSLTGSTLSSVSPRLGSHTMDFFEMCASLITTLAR

ΔTm [1] [°C]	ΔTm [2] [°C]	ΔTm [3] [°C]	ΔTm [5] [°C]	ΔTm [6] [°C]	ΔTm [7] [°C]	ΔTm [8] [°C]	ΔTm [9] [°C]	ΔTm [10] [°C]	ΔTm [11] [°C]	ΔTm [12] [°C]	ΔTm [13] [°C]	ΔTm [14] [°C]	ΔTm [15] [°C]	ΔTm [17] [°C]	Structure (SMILES)	ΔTm [4] [°C]	ΔTm [16] [°C]
-1	0.6	1	1.2	-0.6	1.3	0	0.3	-0.3	-0.5	0.5	-0.5	1	1.5	0.3	Cc1cc2ncc(-c3ccccc3)nc2cc1C	-0.1	-0.6
0.7	0.8	0.6	1.9	11.9	1	0.3	1.2	-0.1	2.5	2.8	1.3	2.3	11.4	2.4	O=C1Cc2c([nH]c3ccc([N+](=O)[O-])cc23)-c2ccccc2N1	1.6	0.1
1	0	0.4	2.1	7.4	0.2	2	0.6	0.1	4	3.8	0.2	4.2	14.8	3.5	NC1=NC(=O)/C(=C2\CCNC(=O)c3[nH]c(Br)cc32)N1 [HYMENIALDISINE]	7.6	0.1
-0.1	-2.2	0.3	1.4	-4	-7.9	-1.2	-2.5	-1.5	0.5	0.4	0.3	0.4	-5.3	0.6	CC(C)(C)c1cc(C=C2C(=O)C=CC2=O)cc(C(C)(C)C)c1O	-0.4	-0.1
0.2	0.4	0.5	0.2	2.4	2.2	0.6	0.9	-0.4	2.8	1.4	0.1	3.3	-0.1	3.4	CC(C)N(CCO)c1nc(Nc2cccc(Cl)c2)c2ncn(C(C)C)c2n1	0.4	0
6.8	0.1	4.5	1	8.8	8.3	6.4	1.5	1.3	4.5	6.3	2.5	0	7	3.2	O=C1Nc2ccc(I)cc2/C1=C1/Nc2ccccc2/C1=N\O	1.4	-2.4
-0.9	0.6	0	0.1	1.2	2.2	1.2	0.7	2.5	3.6	3.2	3.4	6.1	7.7	2.5	Nc1cc2ncnc(Nc3cccc(Br)c3)c2cc1N	2.1	-0.2
1	-0.1	-0.8	0.2	3.6	4.5	0.2	1.6	-0.2	-0.4	6	-0.4	0.5	4.8	0.6	O=C1Nc2ccc(I)cc2/C1=C\c1cc(Br)c(O)c(Br)c1	2.6	0.9
-0.3	0.3	0.3	-0.1	0.7	0.8	0.3	0.3	0.2	0.3	2.8	0.5	1.2	2.8	0.5	N#C/C(=C\c1ccc(O)c(O)c1)C(=O)Nc1ccccc1	1.4	0.5

Structure (SMILES)	ΔTm [1] [°C]	ΔTm [2] [°C]	ΔTm [3] [°C]	ΔTm [5] [°C]	ΔTm [6] [°C]	ΔTm [7] [°C]	ΔTm [8] [°C]	ΔTm [9] [°C]	ΔTm [10] [°C]	ΔTm [11] [°C]	ΔTm [12] [°C]	ΔTm [13] [°C]	ΔTm [14] [°C]	ΔTm [15] [°C]	ΔTm [17] [°C]	ΔTm [4] [°C]	ΔTm [16] [°C]
Cc1cncc2cccc(S(=O)(=O)N3CCCNC[C@@H]3C)c12	1.7	0.9	1.2	0.4	0.6	-0.1	-0.3	0.4	-0.1	1.5	0.8	0.4	3.5	2	1.1	4.8	1
